# Results from the kinase profiling compilation of Christmann-Franck et al. (2016).
# Target: MAP3K8 (human) (UniProt P41279)
# Experiment: radiometric filter-binding kinase assay, Kinase HotSpot
# Conditions: compound 0.5 µM; ATP 10 µM
row,Structure (SMILES),residual activity [%]
1,Cc1cc2ncc(-c3ccccc3)nc2cc1C,106
2,CS(=O)c1ccc(-c2nc(-c3ccc(F)cc3)c(-c3ccncc3)[nH]2)cc1 (stereo not given),92.1

# Target: MAPK1 (human) (UniProt P28482)
# Experiment: as above
# Conditions: compound 0.5 µM; ATP 10 µM
row,Structure (SMILES),residual activity [%]
1,COc1cc2nccc(Oc3ccc(NC(=S)NC(=O)c4ccccc4C)cc3)c2cc1OC,89.3
2,NC(=O)c1ccc(N(C(N)=O)c2c(F)cccc2F)nc1-c1ccc(F)cc1F,85.7
3,Clc1ccc(Nc2nnc(Cc3ccncc3)c3ccccc23)cc1,87.6
4,Cc1cc2ncc(-c3ccccc3)nc2cc1C,88
5,CS(=O)c1ccc(-c2nc(-c3ccc(F)cc3)c(-c3ccncc3)[nH]2)cc1 (stereo not given),94.7

# Target: MARK3 (human) (UniProt P27448)
# Experiment: as above
# Conditions: compound 0.5 µM; ATP 10 µM
# Chain of MARK3 (human) (P27448 whole entry, looked up): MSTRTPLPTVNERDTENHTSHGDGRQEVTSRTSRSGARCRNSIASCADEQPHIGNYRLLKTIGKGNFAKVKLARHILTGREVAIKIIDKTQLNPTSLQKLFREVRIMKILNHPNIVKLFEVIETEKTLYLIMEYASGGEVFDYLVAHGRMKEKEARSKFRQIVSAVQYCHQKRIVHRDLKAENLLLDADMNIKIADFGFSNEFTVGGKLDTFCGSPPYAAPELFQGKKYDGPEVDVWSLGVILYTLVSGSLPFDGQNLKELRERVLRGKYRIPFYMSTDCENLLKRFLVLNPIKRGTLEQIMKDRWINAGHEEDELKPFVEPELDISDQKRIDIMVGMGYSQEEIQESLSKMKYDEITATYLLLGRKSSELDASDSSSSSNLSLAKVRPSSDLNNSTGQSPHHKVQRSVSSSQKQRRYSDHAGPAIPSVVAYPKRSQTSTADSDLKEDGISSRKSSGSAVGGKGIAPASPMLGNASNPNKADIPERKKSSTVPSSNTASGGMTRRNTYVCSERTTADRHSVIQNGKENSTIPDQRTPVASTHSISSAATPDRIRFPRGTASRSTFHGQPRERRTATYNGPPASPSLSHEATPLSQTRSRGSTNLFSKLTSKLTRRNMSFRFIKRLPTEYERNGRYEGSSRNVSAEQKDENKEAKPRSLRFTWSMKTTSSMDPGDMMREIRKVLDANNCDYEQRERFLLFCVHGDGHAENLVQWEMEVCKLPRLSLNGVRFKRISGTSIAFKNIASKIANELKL
row,Structure (SMILES),residual activity [%]
1,COc1cc2nccc(Oc3ccc(NC(=S)NC(=O)c4ccccc4C)cc3)c2cc1OC,79.2
2,NC(=O)c1ccc(N(C(N)=O)c2c(F)cccc2F)nc1-c1ccc(F)cc1F,98.1
3,Clc1ccc(Nc2nnc(Cc3ccncc3)c3ccccc23)cc1,102
4,Cc1cc2ncc(-c3ccccc3)nc2cc1C,101
5,CS(=O)c1ccc(-c2nc(-c3ccc(F)cc3)c(-c3ccncc3)[nH]2)cc1 (stereo not given),101

# Target: MKNK2 (human) (UniProt Q9HBH9)
# Experiment: as above
# Conditions: compound 0.5 µM; ATP 10 µM
# Chain of MKNK2 (human) (Q9HBH9 whole entry, looked up): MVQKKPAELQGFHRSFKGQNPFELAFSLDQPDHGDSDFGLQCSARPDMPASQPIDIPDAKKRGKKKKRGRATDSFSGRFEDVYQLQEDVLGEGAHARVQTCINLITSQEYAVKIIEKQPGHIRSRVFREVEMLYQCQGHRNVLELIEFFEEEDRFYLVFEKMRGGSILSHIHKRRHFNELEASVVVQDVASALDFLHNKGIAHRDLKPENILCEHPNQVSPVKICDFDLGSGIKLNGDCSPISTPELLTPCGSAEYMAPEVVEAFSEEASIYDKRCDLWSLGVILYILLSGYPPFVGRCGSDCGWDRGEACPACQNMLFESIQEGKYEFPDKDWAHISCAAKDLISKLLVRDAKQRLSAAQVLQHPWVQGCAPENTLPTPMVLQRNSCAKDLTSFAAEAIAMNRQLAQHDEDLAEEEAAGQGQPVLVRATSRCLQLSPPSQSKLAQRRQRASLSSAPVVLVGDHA
row,Structure (SMILES),residual activity [%]
1,COc1cc2nccc(Oc3ccc(NC(=S)NC(=O)c4ccccc4C)cc3)c2cc1OC,94.3
2,NC(=O)c1ccc(N(C(N)=O)c2c(F)cccc2F)nc1-c1ccc(F)cc1F,101
3,Clc1ccc(Nc2nnc(Cc3ccncc3)c3ccccc23)cc1,101
4,Cc1cc2ncc(-c3ccccc3)nc2cc1C,94.8
5,CS(=O)c1ccc(-c2nc(-c3ccc(F)cc3)c(-c3ccncc3)[nH]2)cc1 (stereo not given),94.4

# Target: MYO3B (human) (UniProt Q8WXR4)
# Experiment: as above
# Conditions: compound 0.5 µM; ATP 10 µM
row,Structure (SMILES),residual activity [%]
1,COc1cc2nccc(Oc3ccc(NC(=S)NC(=O)c4ccccc4C)cc3)c2cc1OC,83.4
2,NC(=O)c1ccc(N(C(N)=O)c2c(F)cccc2F)nc1-c1ccc(F)cc1F,99.2
3,Clc1ccc(Nc2nnc(Cc3ccncc3)c3ccccc23)cc1,102
4,Cc1cc2ncc(-c3ccccc3)nc2cc1C,99
5,CS(=O)c1ccc(-c2nc(-c3ccc(F)cc3)c(-c3ccncc3)[nH]2)cc1 (stereo not given),104

# Target: NEK11 (human) (UniProt Q8NG66)
# Experiment: as above
# Conditions: compound 0.5 µM; ATP 10 µM
# Chain of NEK11 (human) (Q8NG66 whole entry, looked up): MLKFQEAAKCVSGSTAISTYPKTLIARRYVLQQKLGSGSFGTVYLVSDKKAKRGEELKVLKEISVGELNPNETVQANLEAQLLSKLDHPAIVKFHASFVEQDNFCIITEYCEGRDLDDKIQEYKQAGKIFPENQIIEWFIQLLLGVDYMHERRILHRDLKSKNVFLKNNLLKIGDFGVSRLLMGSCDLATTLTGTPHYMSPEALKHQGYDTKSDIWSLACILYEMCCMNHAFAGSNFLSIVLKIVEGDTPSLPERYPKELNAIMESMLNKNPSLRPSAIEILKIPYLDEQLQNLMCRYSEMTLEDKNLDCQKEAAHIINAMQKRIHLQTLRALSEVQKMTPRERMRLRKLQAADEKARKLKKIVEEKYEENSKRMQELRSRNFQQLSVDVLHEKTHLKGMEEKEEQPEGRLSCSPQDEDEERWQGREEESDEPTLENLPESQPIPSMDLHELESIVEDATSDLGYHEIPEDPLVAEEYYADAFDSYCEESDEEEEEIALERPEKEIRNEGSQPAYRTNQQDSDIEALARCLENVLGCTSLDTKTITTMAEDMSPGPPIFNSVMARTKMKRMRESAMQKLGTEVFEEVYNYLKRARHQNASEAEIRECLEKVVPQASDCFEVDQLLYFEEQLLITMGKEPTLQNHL
row,Structure (SMILES),residual activity [%]
1,COc1cc2nccc(Oc3ccc(NC(=S)NC(=O)c4ccccc4C)cc3)c2cc1OC,96.7
2,NC(=O)c1ccc(N(C(N)=O)c2c(F)cccc2F)nc1-c1ccc(F)cc1F,92.9
3,Clc1ccc(Nc2nnc(Cc3ccncc3)c3ccccc23)cc1,87
4,Cc1cc2ncc(-c3ccccc3)nc2cc1C,104
5,CS(=O)c1ccc(-c2nc(-c3ccc(F)cc3)c(-c3ccncc3)[nH]2)cc1 (stereo not given),81.3

# Target: NUAK2 (human) (UniProt Q9H093)
# Experiment: as above
# Conditions: compound 0.5 µM; ATP 10 µM
# Chain of NUAK2 (human) (Q9H093 whole entry, looked up): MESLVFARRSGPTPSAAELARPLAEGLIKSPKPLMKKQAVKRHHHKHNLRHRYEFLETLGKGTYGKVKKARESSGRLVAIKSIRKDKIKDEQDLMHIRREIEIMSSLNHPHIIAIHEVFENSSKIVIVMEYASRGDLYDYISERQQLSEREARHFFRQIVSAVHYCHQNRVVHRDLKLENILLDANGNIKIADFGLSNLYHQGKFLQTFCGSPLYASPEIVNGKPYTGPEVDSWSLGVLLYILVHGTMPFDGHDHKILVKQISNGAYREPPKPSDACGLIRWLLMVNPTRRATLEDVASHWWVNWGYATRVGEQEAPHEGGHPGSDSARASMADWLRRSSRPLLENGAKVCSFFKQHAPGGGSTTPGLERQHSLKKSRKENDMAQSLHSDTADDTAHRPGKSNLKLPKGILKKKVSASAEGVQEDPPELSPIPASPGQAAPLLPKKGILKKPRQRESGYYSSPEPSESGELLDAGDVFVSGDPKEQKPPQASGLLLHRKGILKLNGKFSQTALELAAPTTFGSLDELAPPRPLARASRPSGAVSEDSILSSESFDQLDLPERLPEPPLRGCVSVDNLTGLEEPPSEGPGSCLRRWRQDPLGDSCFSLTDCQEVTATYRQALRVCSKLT
row,Structure (SMILES),residual activity [%]
1,COc1cc2nccc(Oc3ccc(NC(=S)NC(=O)c4ccccc4C)cc3)c2cc1OC,106
2,NC(=O)c1ccc(N(C(N)=O)c2c(F)cccc2F)nc1-c1ccc(F)cc1F,98.7
3,Clc1ccc(Nc2nnc(Cc3ccncc3)c3ccccc23)cc1,105
4,Cc1cc2ncc(-c3ccccc3)nc2cc1C,124
5,CS(=O)c1ccc(-c2nc(-c3ccc(F)cc3)c(-c3ccncc3)[nH]2)cc1 (stereo not given),131

# Target: OXSR1 (human) (UniProt O95747)
# Experiment: as above
# Conditions: compound 0.5 µM; ATP 10 µM
# Chain of OXSR1 (human) (O95747 whole entry, looked up): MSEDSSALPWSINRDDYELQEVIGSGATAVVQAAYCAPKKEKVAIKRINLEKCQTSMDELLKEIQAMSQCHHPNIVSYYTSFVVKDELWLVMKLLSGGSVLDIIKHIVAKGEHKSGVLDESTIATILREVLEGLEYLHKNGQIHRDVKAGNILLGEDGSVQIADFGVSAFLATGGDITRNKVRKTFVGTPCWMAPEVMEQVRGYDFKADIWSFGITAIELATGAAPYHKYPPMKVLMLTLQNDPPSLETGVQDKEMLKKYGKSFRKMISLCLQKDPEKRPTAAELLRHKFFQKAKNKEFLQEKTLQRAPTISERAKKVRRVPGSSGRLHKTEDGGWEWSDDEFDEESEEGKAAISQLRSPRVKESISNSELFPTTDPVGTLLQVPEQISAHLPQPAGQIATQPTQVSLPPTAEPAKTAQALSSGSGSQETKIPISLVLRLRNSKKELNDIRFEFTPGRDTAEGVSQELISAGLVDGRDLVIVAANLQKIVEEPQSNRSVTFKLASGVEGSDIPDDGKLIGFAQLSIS
row,Structure (SMILES),residual activity [%]
1,COc1cc2nccc(Oc3ccc(NC(=S)NC(=O)c4ccccc4C)cc3)c2cc1OC,106
2,NC(=O)c1ccc(N(C(N)=O)c2c(F)cccc2F)nc1-c1ccc(F)cc1F,96.9
3,Clc1ccc(Nc2nnc(Cc3ccncc3)c3ccccc23)cc1,101
4,Cc1cc2ncc(-c3ccccc3)nc2cc1C,85.6
5,CS(=O)c1ccc(-c2nc(-c3ccc(F)cc3)c(-c3ccncc3)[nH]2)cc1 (stereo not given),102

# Target: PASK (human) (UniProt Q96RG2)
# Experiment: as above
# Conditions: compound 0.5 µM; ATP 10 µM
row,Structure (SMILES),residual activity [%]
1,COc1cc2nccc(Oc3ccc(NC(=S)NC(=O)c4ccccc4C)cc3)c2cc1OC,93.6
2,NC(=O)c1ccc(N(C(N)=O)c2c(F)cccc2F)nc1-c1ccc(F)cc1F,103
3,Clc1ccc(Nc2nnc(Cc3ccncc3)c3ccccc23)cc1,101
4,Cc1cc2ncc(-c3ccccc3)nc2cc1C,82.1
5,CS(=O)c1ccc(-c2nc(-c3ccc(F)cc3)c(-c3ccncc3)[nH]2)cc1 (stereo not given),99.1

# Target: PDGFRB (human) (UniProt P09619)
# Experiment: as above
# Conditions: compound 0.5 µM; ATP 10 µM
# Chain of PDGFRB (human) (P09619 whole entry, looked up): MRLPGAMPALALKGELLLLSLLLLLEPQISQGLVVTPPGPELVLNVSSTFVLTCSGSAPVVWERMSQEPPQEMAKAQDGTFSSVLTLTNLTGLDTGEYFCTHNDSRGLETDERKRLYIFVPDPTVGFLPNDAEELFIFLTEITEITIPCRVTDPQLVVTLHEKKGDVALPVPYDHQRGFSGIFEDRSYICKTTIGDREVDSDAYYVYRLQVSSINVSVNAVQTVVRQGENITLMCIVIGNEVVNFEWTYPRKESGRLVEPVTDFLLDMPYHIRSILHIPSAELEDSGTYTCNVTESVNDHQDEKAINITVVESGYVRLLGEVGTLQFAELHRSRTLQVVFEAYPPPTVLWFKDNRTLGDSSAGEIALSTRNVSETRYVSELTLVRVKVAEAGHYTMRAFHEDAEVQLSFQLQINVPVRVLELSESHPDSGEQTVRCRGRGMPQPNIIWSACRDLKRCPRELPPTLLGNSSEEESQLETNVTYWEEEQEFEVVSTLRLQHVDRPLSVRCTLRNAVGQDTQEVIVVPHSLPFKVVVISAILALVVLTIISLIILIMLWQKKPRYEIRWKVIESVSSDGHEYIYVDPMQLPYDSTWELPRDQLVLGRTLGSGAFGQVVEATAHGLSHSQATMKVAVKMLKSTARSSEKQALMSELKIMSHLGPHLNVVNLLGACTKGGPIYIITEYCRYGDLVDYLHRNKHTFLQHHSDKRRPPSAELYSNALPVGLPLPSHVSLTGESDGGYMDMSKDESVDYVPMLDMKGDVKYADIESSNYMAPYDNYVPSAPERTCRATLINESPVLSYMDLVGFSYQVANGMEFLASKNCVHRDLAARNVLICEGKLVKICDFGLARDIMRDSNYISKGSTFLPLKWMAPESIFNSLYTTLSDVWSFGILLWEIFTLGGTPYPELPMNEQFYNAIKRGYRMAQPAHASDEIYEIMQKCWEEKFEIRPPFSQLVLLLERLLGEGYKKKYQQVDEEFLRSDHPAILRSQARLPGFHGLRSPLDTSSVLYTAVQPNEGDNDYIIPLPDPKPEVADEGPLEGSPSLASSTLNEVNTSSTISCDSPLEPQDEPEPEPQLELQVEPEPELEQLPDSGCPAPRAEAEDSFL
row,Structure (SMILES),residual activity [%]
1,COc1cc2nccc(Oc3ccc(NC(=S)NC(=O)c4ccccc4C)cc3)c2cc1OC,26.7
2,NC(=O)c1ccc(N(C(N)=O)c2c(F)cccc2F)nc1-c1ccc(F)cc1F,62.8
3,Cc1cc2ncc(-c3ccccc3)nc2cc1C,89.1
4,CS(=O)c1ccc(-c2nc(-c3ccc(F)cc3)c(-c3ccncc3)[nH]2)cc1 (stereo not given),103

# Target: PRKACG (human) (UniProt P22612)
# Experiment: as above
# Conditions: compound 0.5 µM; ATP 10 µM
row,Structure (SMILES),residual activity [%]
1,COc1cc2nccc(Oc3ccc(NC(=S)NC(=O)c4ccccc4C)cc3)c2cc1OC,107
2,NC(=O)c1ccc(N(C(N)=O)c2c(F)cccc2F)nc1-c1ccc(F)cc1F,109
3,Clc1ccc(Nc2nnc(Cc3ccncc3)c3ccccc23)cc1,116
4,Cc1cc2ncc(-c3ccccc3)nc2cc1C,95.8
5,CS(=O)c1ccc(-c2nc(-c3ccc(F)cc3)c(-c3ccncc3)[nH]2)cc1 (stereo not given),107

# Target: PRKCB2 (human) (UniProt P05771)
# Experiment: as above
# Conditions: compound 0.5 µM; ATP 10 µM
row,Structure (SMILES),residual activity [%]
1,COc1cc2nccc(Oc3ccc(NC(=S)NC(=O)c4ccccc4C)cc3)c2cc1OC,102
2,NC(=O)c1ccc(N(C(N)=O)c2c(F)cccc2F)nc1-c1ccc(F)cc1F,94.6
3,Clc1ccc(Nc2nnc(Cc3ccncc3)c3ccccc23)cc1,97.2
4,Cc1cc2ncc(-c3ccccc3)nc2cc1C,124
5,CS(=O)c1ccc(-c2nc(-c3ccc(F)cc3)c(-c3ccncc3)[nH]2)cc1 (stereo not given),97.9

# Target: PRKCG (human) (UniProt P05129)
# Experiment: as above
# Conditions: compound 0.5 µM; ATP 10 µM
row,Structure (SMILES),residual activity [%]
1,COc1cc2nccc(Oc3ccc(NC(=S)NC(=O)c4ccccc4C)cc3)c2cc1OC,100
2,NC(=O)c1ccc(N(C(N)=O)c2c(F)cccc2F)nc1-c1ccc(F)cc1F,91.3
3,Clc1ccc(Nc2nnc(Cc3ccncc3)c3ccccc23)cc1,93.3
4,Cc1cc2ncc(-c3ccccc3)nc2cc1C,96.9
5,CS(=O)c1ccc(-c2nc(-c3ccc(F)cc3)c(-c3ccncc3)[nH]2)cc1 (stereo not given),90

# Target: PRKD2 (human) (UniProt Q9BZL6)
# Experiment: as above
# Conditions: compound 0.5 µM; ATP 10 µM
row,Structure (SMILES),residual activity [%]
1,COc1cc2nccc(Oc3ccc(NC(=S)NC(=O)c4ccccc4C)cc3)c2cc1OC,86.8
2,NC(=O)c1ccc(N(C(N)=O)c2c(F)cccc2F)nc1-c1ccc(F)cc1F,81.8
3,Clc1ccc(Nc2nnc(Cc3ccncc3)c3ccccc23)cc1,86
4,Cc1cc2ncc(-c3ccccc3)nc2cc1C,96.5

# Target: PRKD3 (human) (UniProt O94806)
# Experiment: as above
# Conditions: compound 0.5 µM; ATP 10 µM
# Chain of PRKD3 (human) (O94806 whole entry, looked up): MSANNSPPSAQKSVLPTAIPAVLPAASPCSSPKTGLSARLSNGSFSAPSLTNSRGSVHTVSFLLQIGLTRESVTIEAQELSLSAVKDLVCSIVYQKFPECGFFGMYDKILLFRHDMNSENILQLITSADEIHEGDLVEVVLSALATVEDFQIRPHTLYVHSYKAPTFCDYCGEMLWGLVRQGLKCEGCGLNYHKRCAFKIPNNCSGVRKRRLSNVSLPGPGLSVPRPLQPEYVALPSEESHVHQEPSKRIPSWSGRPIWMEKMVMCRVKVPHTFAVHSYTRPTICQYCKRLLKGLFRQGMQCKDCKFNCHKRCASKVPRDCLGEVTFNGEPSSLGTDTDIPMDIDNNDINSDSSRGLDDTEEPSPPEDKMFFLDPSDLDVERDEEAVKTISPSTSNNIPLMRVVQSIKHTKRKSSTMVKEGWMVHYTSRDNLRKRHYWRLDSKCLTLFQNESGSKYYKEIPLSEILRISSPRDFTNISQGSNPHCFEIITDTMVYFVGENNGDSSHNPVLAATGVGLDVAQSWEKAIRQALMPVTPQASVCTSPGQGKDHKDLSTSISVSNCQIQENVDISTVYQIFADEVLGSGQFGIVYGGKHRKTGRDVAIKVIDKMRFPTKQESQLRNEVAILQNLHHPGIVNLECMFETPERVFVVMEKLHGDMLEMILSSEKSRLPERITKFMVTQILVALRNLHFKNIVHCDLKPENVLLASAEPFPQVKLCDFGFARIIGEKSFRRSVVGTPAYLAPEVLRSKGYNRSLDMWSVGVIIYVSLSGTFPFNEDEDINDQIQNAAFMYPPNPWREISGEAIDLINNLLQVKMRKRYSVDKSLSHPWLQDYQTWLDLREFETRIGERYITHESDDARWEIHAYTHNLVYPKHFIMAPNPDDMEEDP
row,Structure (SMILES),residual activity [%]
1,COc1cc2nccc(Oc3ccc(NC(=S)NC(=O)c4ccccc4C)cc3)c2cc1OC,97.8
2,NC(=O)c1ccc(N(C(N)=O)c2c(F)cccc2F)nc1-c1ccc(F)cc1F,85.1
3,Clc1ccc(Nc2nnc(Cc3ccncc3)c3ccccc23)cc1,94.7
4,Cc1cc2ncc(-c3ccccc3)nc2cc1C,92.2
5,CS(=O)c1ccc(-c2nc(-c3ccc(F)cc3)c(-c3ccncc3)[nH]2)cc1 (stereo not given),84.1

# Target: STK38 (human) (UniProt Q15208)
# Experiment: as above
# Conditions: compound 0.5 µM; ATP 10 µM
row,Structure (SMILES),residual activity [%]
1,COc1cc2nccc(Oc3ccc(NC(=S)NC(=O)c4ccccc4C)cc3)c2cc1OC,107
2,NC(=O)c1ccc(N(C(N)=O)c2c(F)cccc2F)nc1-c1ccc(F)cc1F,101
3,Clc1ccc(Nc2nnc(Cc3ccncc3)c3ccccc23)cc1,100
4,Cc1cc2ncc(-c3ccccc3)nc2cc1C,94.7
5,CS(=O)c1ccc(-c2nc(-c3ccc(F)cc3)c(-c3ccncc3)[nH]2)cc1 (stereo not given),105

# Target: TBK1 (human) (UniProt Q9UHD2)
# Experiment: as above
# Conditions: compound 0.5 µM; ATP 10 µM
row,Structure (SMILES),residual activity [%]
1,COc1cc2nccc(Oc3ccc(NC(=S)NC(=O)c4ccccc4C)cc3)c2cc1OC,103
2,NC(=O)c1ccc(N(C(N)=O)c2c(F)cccc2F)nc1-c1ccc(F)cc1F,106
3,Clc1ccc(Nc2nnc(Cc3ccncc3)c3ccccc23)cc1,104
4,Cc1cc2ncc(-c3ccccc3)nc2cc1C,93.8
5,CS(=O)c1ccc(-c2nc(-c3ccc(F)cc3)c(-c3ccncc3)[nH]2)cc1 (stereo not given),99.7

# Target: TEC (human) (UniProt P42680)
# Experiment: as above
# Conditions: compound 0.5 µM; ATP 10 µM
row,Structure (SMILES),residual activity [%]
1,COc1cc2nccc(Oc3ccc(NC(=S)NC(=O)c4ccccc4C)cc3)c2cc1OC,90.8
2,NC(=O)c1ccc(N(C(N)=O)c2c(F)cccc2F)nc1-c1ccc(F)cc1F,114
3,Clc1ccc(Nc2nnc(Cc3ccncc3)c3ccccc23)cc1,137
4,Cc1cc2ncc(-c3ccccc3)nc2cc1C,98.1
5,CS(=O)c1ccc(-c2nc(-c3ccc(F)cc3)c(-c3ccncc3)[nH]2)cc1 (stereo not given),113

# Target: TLK2 (human) (UniProt Q86UE8)
# Experiment: as above
# Conditions: compound 0.5 µM; ATP 10 µM
row,Structure (SMILES),residual activity [%]
1,COc1cc2nccc(Oc3ccc(NC(=S)NC(=O)c4ccccc4C)cc3)c2cc1OC,85.3
2,NC(=O)c1ccc(N(C(N)=O)c2c(F)cccc2F)nc1-c1ccc(F)cc1F,95.7
3,Clc1ccc(Nc2nnc(Cc3ccncc3)c3ccccc23)cc1,102
4,Cc1cc2ncc(-c3ccccc3)nc2cc1C,100
5,CS(=O)c1ccc(-c2nc(-c3ccc(F)cc3)c(-c3ccncc3)[nH]2)cc1 (stereo not given),96.5

# Target: ULK1 (human) (UniProt O75385)
# Experiment: as above
# Conditions: compound 0.5 µM; ATP 10 µM
row,Structure (SMILES),residual activity [%]
1,COc1cc2nccc(Oc3ccc(NC(=S)NC(=O)c4ccccc4C)cc3)c2cc1OC,95
2,NC(=O)c1ccc(N(C(N)=O)c2c(F)cccc2F)nc1-c1ccc(F)cc1F,104
3,Clc1ccc(Nc2nnc(Cc3ccncc3)c3ccccc23)cc1,107
4,Cc1cc2ncc(-c3ccccc3)nc2cc1C,84.1
5,CS(=O)c1ccc(-c2nc(-c3ccc(F)cc3)c(-c3ccncc3)[nH]2)cc1 (stereo not given),89.3

# Target: ULK3 (human) (UniProt Q6PHR2)
# Experiment: as above
# Conditions: compound 0.5 µM; ATP 10 µM
row,Structure (SMILES),residual activity [%]
1,COc1cc2nccc(Oc3ccc(NC(=S)NC(=O)c4ccccc4C)cc3)c2cc1OC,86.8
2,NC(=O)c1ccc(N(C(N)=O)c2c(F)cccc2F)nc1-c1ccc(F)cc1F,101
3,Clc1ccc(Nc2nnc(Cc3ccncc3)c3ccccc23)cc1,101
4,Cc1cc2ncc(-c3ccccc3)nc2cc1C,86.4
5,CS(=O)c1ccc(-c2nc(-c3ccc(F)cc3)c(-c3ccncc3)[nH]2)cc1 (stereo not given),83.2
